{
  "source": "patent US4965352A",
  "about": "“Anthracycline derivatives having cytostatic activity” (Behringwerke Aktiengesellschaft, priority 1986, dated 1990)",
  "key": {"[1]": {"tested_on": "mouse L1210 leukemia cells", "test": "Formation of L1210 leukemia cell colonies in soft agar", "type": "cell-based", "conditions": "for IC50: Mus musculus, L1210, 168 h, read-out: Cytotoxicity (continuous incubation) IC50; for cytostatic activity compared with adriamycin: result in words, test not named", "method": "The cytostatic activity of the compounds according to the invention has been tested using mouse L1210 leukemia cells. Use was made for this of the formation of L1210 leukemia cell colonies in soft agar. This method is used to detect the effect of the test substances on the growth behavior of the cells over several generations. In this connection, with a cell cycle time of 10 to 12 hours, about 14 consecutive generations are observed in the 7-day duration of the test. In this test, the substances having cytostatic activity according to the invention bring about a reduction, compared with an untreated control sample, in the number of colonies which is to be observed.\n500 leukemia cells per plate were incubated with various concentrations of the test substance at 37° C. for 1 hour. The cells were then washed twice with McCoy 5A medium, 0.3% agar was added, and finally the mixture was poured into Petri dishes. Controls were incubated only with fresh medium. In place of the incubation for one hour, in some cases various concentrations and test substances were mixed with the upper agar layer in order in this way to achieve continuous exposure of the cells throughout the incubation time. After the agar had solidified, the plates were incubated in an incubator at 37° C. for 7 days (5% by volume CO2, 95% relative atmospheric humidity). Thereafter the number of colonies with a diameter of more than 60μ which had formed was counted. The results have been stated as the number of colonies in treated agar plates as a percentage of the untreated control. The dose-effect graph obtained in this way was used to determine the IC50 as a measure of the activity of the substance. The results for the compounds described here are compiled in Table 1, comparing with adriamycin."}, "[2]": {"test": "Acute toxicity in NMRI mice after intravenous injection", "conditions": "mouse, in vivo, survival on day 14, Litchfield-Wilcoxon", "method": "Details of the test method are evident from the procecdure for determining the formation of colonies given herein after. Appropriate tests on NMRI mice were carried out to determine the acute toxicity of the anthracycline derivatives according to the invention. Details of the test method are evident from the procedure for determining the acute toxicity given hereinafter.\nDetermination of the acute toxicity entailed intravenous injection of various doses of the test substance, disolved in 0.5 ml of physiological saline solution, in NMRI mice on day 0. Control groups received only 0.5 ml of physiological saline solution. 5 mice were used for each concentration of the test substance. The number of surviving mice was determined on day 14, and the LD50 was determined therefrom by the Litchfield-Wilcoxon method. The toxicity of the compounds described here is compiled in Table 1, comparing with adriamycin."}},
  "data": [
    {"smiles": "CC[C@@]1(O)C[C@H](O[C@H]2C[C@H](N(C)C)[C@H](OC(C)=O)[C@H](C)O2)c2c(O)c3c(c(O)c2[C@H]1C(=O)OC)C(=O)c1c(O)ccc(O)c1C3=O", "note": "[Compound 1, 7-O-(4'-O-acetyl--L-rhodosaminyl)-ε-isorhodomycinone]", "values": [
      {"measurement": "IC50", "setting": "[1]", "value": 0.028, "unit": "µg/mL"},
      {"measurement": "cytostatic activity compared with adriamycin", "setting": "[1]", "value": "comparable with that of adriamycin"},
      {"measurement": "LD50 at 336 h", "setting": "[2]", "value": 89, "unit": "mg/kg"}
    ]},
    {"smiles": "CC[C@@]1(O)C[C@H](O[C@H]2C[C@H](NC)[C@H](OC(C)=O)[C@H](C)O2)c2c(O)c3c(c(O)c2[C@H]1C(=O)OC)C(=O)c1c(O)ccc(O)c1C3=O", "note": "[Compound 8, 7-O-(4'-O-acetyl-3'-N-methyl-α-L-daunosaminyl)-ε-isorhodomycinone]", "values": [
      {"measurement": "IC50", "setting": "[1]", "value": 0.1, "unit": "µg/mL"}
    ]},
    {"smiles": "CC[C@@]1(O)C[C@H](O[C@H]2C[C@H](N(C)C)[C@H](O)[C@H](C)O2)c2c(O)c3c(c(O)c2[C@H]1C(=O)OC)C(=O)c1c(O)ccc(O)c1C3=O", "note": "[Compound 2, 7-O-(α-L-rhodosaminyl)-ε-isorhodomycinone]", "values": [
      {"measurement": "IC50", "setting": "[1]", "value": 0.035, "unit": "µg/mL"},
      {"measurement": "cytostatic activity compared with adriamycin", "setting": "[1]", "value": "comparable with that of adriamycin"},
      {"measurement": "LD50 at 336 h", "setting": "[2]", "value": "50 to 100", "unit": "mg/kg"}
    ]},
    {"smiles": "CC[C@@]1(O)C[C@H](O[C@H]2C[C@H](NC(=O)C(F)(F)F)[C@H](O)[C@H](C)O2)c2c(O)c3c(c(O)c2[C@H]1C(=O)OC)C(=O)c1c(O)ccc(O)c1C3=O", "note": "[Compound 5, 7-O-(3'-N-trifluoroacetyl-α-L-daunosaminyl)-ε-isorhodomycinone]", "values": [
      {"measurement": "IC50", "setting": "[1]", "value": 0.4, "unit": "µg/mL"}
    ]},
    {"smiles": "COc1cccc2c1C(=O)c1c(O)c3c(c(O)c1C2=O)C[C@@](O)(C(=O)CO)C[C@@H]3O[C@H]1C[C@H](N)[C@H](O)[C@H](C)O1", "note": "[Adriamycin, reference compound]", "values": [
      {"measurement": "IC50", "setting": "[1]", "value": 0.02, "unit": "µg/mL"},
      {"measurement": "LD50 at 336 h", "setting": "[2]", "value": 26.5, "unit": "mg/kg"}
    ]},
    {"smiles": "CC[C@@]1(O)C[C@H](O[C@H]2C[C@H](NC)[C@H](O)[C@H](C)O2)c2c(O)c3c(c(O)c2[C@H]1C(=O)OC)C(=O)c1c(O)ccc(O)c1C3=O", "note": "[Compound 9, 7-O-(3'-N-methyl--L-daunosaminyl)-ε-isorhodomycinone]", "values": [
      {"measurement": "IC50", "setting": "[1]", "value": 0.028, "unit": "µg/mL"}
    ]}
  ]
}
